Data reported in patent publication US10919896B2, “Preparation and uses of pyrimidinone derivatives” (Cancer Research Technology Limited, priority 2016, dated 2021).
Counter-ions that a name gives are not always drawn.

How the values were obtained:
[1] = target: Cdc7/ASK (Homo sapiens, UniProt O00311); test: Cdc7 Biochemical Assay Method 4: off-chip mobility shift assay (Carna Biosciences); set-up: purchased Carna Biosciences; host or cells: baculovirus expression system; settings: off-chip MSA, MCM2 peptide, 5 hours; read-out: Biochemical Method 4 (pIC50) (converted)
Procedure: This protocol describes a method for assaying Cdc7/ASK for activity. The assay is an off-chip mobility shift assay (MSA) run at Carna Biosciences.
1. Preparation of Test Compound Solution.
The test compound was dissolved in and diluted with dimethylsulfoxide (DMSO) to achieve 100-fold higher concentration which was specified by the sponsor. Then the solution was further 25-fold diluted with assay buffer to make the final test compound solution. Reference compounds for assay control were prepared similarly.
Cdc7/ASK: Full-length human Cdc7 [1-574(end) amino acids of accession number NP_003494.1] was co-expressed as N-terminal GST-fusion protein (92 kDa) with Dbf4(ASK) [1-674(end) amino acids of accession number NP_006707.1] using baculovirus expression system. GST-Cdc7 was purified by using glutathione sepharose chromatography.
3. Assay Reagents and Procedures
Off-chip Mobility Shift Assay (MSA)
1) The […] of ×2 kinase solution were prepared with assay buffer (20 mM HEPES, 0.01% Triton X-100, 1 mM DTT, pH 7.5) and mixed and incubated in a well of polypropylene 384 well microplate for 5 hours at room temperature. 2) […] of Termination Buffer (QuickScout Screening Assist MSA; Carna Biosciences) was added to the well. 3) The reaction mixture was applied to LabChip system (Perkin Elmer), and the product and substrate peptide peaks were separated and quantitated. 4) The kinase reaction was evaluated by the product ratio calculated from peak heights of product (P) and substrate (S) peptides (P/(P+S)).
Reaction time is 5 hours.
The readout value of reaction control (complete reaction mixture) was set as a 0% inhibition, and the readout value of background (Enzyme(−)) was set as a 100% inhibition, then the percent inhibition of each test solution was calculated.
IC50 value was calculated from concentration vs. % Inhibition curves by fitting to a four parameter logistic curve.

[2] = tested on: Cdc7 (pS40MCM2 levels in HCT116 cells); test: Cdc7 Cell Pharmacodynamics Assay Method 2B: pS40MCM2 levels in HCT116 cells, 18 hours; format: cell-based; settings: Homo sapiens, HCT-116, read-out: Biomarker Method 2B (pEC50) (converted)
Procedure, shortened: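 HCT116 cells seeded at 20,000/well, settled overnight, then treated with compound (1:400 dilution from compound plate) for 6 h (Method 2A) or 18 h (Method 2B) at 37° C. Lysates captured on total-MCM2 antibody plates; pS40 MCM2 detected with rabbit anti-pMCM2 Ser40, HRP secondary and chemiluminescent substrate.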

Sequence of Cdc7/ASK (O00311 whole entry): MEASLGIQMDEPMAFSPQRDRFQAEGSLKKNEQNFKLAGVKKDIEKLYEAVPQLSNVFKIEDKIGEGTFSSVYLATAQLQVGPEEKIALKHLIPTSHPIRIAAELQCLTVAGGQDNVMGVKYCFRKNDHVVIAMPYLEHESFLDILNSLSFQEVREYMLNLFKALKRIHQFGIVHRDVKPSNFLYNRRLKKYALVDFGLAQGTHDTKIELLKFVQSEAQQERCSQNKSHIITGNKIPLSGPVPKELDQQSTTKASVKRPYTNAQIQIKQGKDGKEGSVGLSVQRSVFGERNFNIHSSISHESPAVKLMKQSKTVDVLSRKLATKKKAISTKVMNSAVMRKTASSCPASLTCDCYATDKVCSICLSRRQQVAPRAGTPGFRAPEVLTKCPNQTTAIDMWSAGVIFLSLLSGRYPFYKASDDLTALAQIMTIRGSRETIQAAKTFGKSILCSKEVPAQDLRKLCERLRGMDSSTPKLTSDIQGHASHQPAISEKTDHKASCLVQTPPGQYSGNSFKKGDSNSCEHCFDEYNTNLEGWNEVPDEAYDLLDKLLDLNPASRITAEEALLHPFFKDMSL
Sequence of Cdc7/ASK (Q9UBU7 whole entry partner): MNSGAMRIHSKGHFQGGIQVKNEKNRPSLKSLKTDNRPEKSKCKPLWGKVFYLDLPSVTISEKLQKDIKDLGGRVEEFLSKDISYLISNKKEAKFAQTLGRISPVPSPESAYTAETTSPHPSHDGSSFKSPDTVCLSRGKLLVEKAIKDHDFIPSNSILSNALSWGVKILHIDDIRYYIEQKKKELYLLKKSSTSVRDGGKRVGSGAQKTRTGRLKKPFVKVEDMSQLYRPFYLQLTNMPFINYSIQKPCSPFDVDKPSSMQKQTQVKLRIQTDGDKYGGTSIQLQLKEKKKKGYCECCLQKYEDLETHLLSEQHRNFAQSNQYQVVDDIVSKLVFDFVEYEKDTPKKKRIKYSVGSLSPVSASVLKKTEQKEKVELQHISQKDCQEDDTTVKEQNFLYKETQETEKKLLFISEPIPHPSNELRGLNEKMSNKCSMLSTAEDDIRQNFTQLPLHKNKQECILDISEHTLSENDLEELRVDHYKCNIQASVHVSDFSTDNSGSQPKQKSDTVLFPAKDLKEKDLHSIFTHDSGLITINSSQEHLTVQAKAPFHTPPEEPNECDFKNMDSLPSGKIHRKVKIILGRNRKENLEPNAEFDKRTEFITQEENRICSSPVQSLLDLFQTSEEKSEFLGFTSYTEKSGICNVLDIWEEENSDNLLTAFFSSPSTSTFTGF

Row | IC50 [1] [nM] | EC50 [2] [nM] | SMILES
1 | 3.09 | 5.62 | C[C@@H]1CNCCN1c1nc(-c2ccnc(F)c2)[nH]c(=O)c1Cl [Compound 323]
2 | 3.72 | 7.59 | O=c1[nH]c(-c2ccnc(F)c2)nc(N2CCNCC(F)(F)C2)c1Cl [Compound 312, 5-chloro-4-(6,6-difluoro-1,4-diazepan-1-yl)-2-(2-fluoro-4-pyridyl)-1H-pyrimidin-6-one hydrochloride]
3 |  | 13.5 | O=c1[nH]c(-c2ccnc(F)c2)nc(N2CCCC(F)(F)C2)c1Cl [Compound 90, 5-chloro-4-(3,3-difluoro-1-piperidyl)-2-(2-fluoro-4-pyridyl)-1H-pyrimidin-6-one]
